Source: ChEMBL document CHEMBL5120977, “Orexin Receptor Agonists as Possible Treatment for Narcolepsy and Idiopathic Hypersomnia” (ACS Med Chem Lett, 2022)

Biological target: T1, Orexin receptor type 2 (Homo sapiens, UniProt O43614)
T1 sequence (O43614 whole entry): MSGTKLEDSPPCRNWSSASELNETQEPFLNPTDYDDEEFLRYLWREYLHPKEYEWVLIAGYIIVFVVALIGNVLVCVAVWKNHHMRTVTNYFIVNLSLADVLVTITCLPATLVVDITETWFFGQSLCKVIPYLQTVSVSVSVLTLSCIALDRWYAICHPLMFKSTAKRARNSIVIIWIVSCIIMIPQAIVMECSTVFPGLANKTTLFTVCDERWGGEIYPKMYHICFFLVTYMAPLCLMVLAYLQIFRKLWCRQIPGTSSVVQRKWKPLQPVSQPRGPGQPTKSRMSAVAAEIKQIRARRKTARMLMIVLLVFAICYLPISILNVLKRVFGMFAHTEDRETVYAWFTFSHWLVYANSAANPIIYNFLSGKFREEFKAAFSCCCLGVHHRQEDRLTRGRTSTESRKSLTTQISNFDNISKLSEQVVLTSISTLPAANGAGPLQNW
Test: Agonist activity at human OX2R expressed in CHO cells
Assay type: functional, cell-based

`CCN(C(=O)N[C@@H](C1CCCC(F)(F)C1)C(F)(F)F)[C@H](C)c1cccc(-c2cn3ccnc3c(OC)n2)c1` (stereo partly specified) was tested, and the EC50 was 0.9 nM.
